Assay results: US20210077501A1, “COMPOSITIONS FOR PREVENTING OR TREATING UVEITIS” (Chong Kun Dang Pharmaceutical Corp., priority 2018, published 2021)

Tests used:
reactive T cells = assay: Treg suppression assay: proliferation of reactive T cells (eFluor670 dilution, flow cytometry); format: cell-based, mouse; details: Teff:Treg 2:1, three days; concentration not specified
Protocol: To identify the efficacy of the inventive compounds on suppressing the proliferation of reactive T cells in immune responses, compounds 255, 280, 374, 416 and 476 according to the present invention were cultured together with reactive T cells and regulatory T cells […], and then the suppressive efficacy of regulatory T cells was measured.
Specifically, a six-week old C57BL6 male mice were supplied from Central Lab Animal Inc., then acclimated for one week, and then used in an experiment. A spleen was isolated from the mouse, and then treated with collagenase D (Roche, 11088866001), such that splenocytes were isolated therefrom. […] were isolated by means of a CD4+CD25+ regulatory T cell isolation kit (Miltenyi Biotec, 130-091-041) according to a protocol provided by a manufacturer. Teff cells were cultured at 37° C. for ten minutes by means of eFluor®670 (Cell proliferation Dye eFluor®670, eBioscience), such that cell membranes were stained. Teff and Treg were divided into a 96 well plate at a ratio of 2:1, and then T cells were activated for three days by means of an anti-CD3E and anti-CD28 mAb magnetic bead (T cell activation/expansion kit, Miltenyi Biotec, 130-093627), such that Treg suppression assay was performed. A test drug was simultaneously treated for three days, during which the assay was performed. The divided amount of eFluor®670 labeled on the Teff cell membranes was measured, such that a degree of proliferation of T cells was evaluated accordingly. An eFluor®670-dilution plot was measured by means of a flow cytometer (FACS LSR Fortessa, BD bioscience). The suppressive ability on T cells proliferation was calculated by means of a following equation.

[1] = test system: CTLA4 (cytotoxic T-lymphocyte-associated protein 4) in the regulatory T cells; assay: CTLA4 expression in regulatory T cells (iTreg) by flow cytometry; format: cell-based, mouse; details: for level of CTLA4 expression in the T cells (function of regulatory T cells): iTreg, six days treatment, concentration not specified
Protocol: To identify if the compounds according to the present invention regulate a function of regulatory T cells in immune responses, compounds 255, 280, 374, 416 and 476 were treated, and then an expression level of an immune checkpoint receptor CTLA4 (cytotoxic T-lymphocyte-associated protein 4) in the regulatory T cells was measured by means of flow cytometry.
Specifically, a six-week old C57BL6 male mice were supplied from Central Lab Animal Inc., then acclimated for one week, and then used in an experiment. A spleen was isolated from the mouse, and then treated with collagenase D (Roche, 11088866001), such that splenocytes were isolated therefrom. CD4+CD25-T cells were isolated by means of a CD4+CD25+ regulatory T cell isolation kit (Miltenyi Biotec, 130-091-041), and then CD4+CD25-T cells (at a ratio of 5×10^5 cells/well) were treated with an anti-CD3E/anti-CD28 mAb bead (T cell activation/expansion kit, Miltenyi Biotec, 130-093627) and a mouse recombinant TGF-β2 for six days, such that they were differentiated into iTreg. A test drug was simultaneously treated for six days, during which the cells were differentiated into iTreg. After that, the cells were incubated by means of anti-CD4/anti-CD25 mAb (eBioscience, 25-0042-82, 17-0251-82) at 4° C. for 20 minutes, and then labeling was performed. For intracytoplasmic staining, permeabilization was performed by means of Fix/permeabilization buffer (eBioscience, 00-5523-00), then labeling was performed by means of anti-FOXP3-Alexafluor488 (eBioscience, 53-5773-82) and anti-CTLA4-PE (eBioscience, 12-1522-82), and then flow cytometry was performed by means of FACS LSR Fortessa (BD bioscience).

[2] = test system: TNFα secretion in LPS-stimulated human monocyte cell lines (THP-1); assay: Suppression of TNFα secretion in LPS-stimulated THP-1 cells (ELISA); format: cell-based
Protocol: To identify the efficacy of the inventive compounds on suppressing a TNFα secretion in immune responses, suppression of TNFα production, which was achieved by a treatment with compounds 374, 461, 500, 530 and 532 according to the present invention in LPS-stimulated human monocyte cell lines (THP-1), was quantified by means of an enzyme immuno-assay (ELISA).
Specifically, the THP-1 cell lines (ATCC) were cultured in an RPMI-1640 medium comprising 10% FBS. The cell lines were divided into a 24 well plate at a ratio of 1×10^5 cells per well, then treated with 100 ng/mL PMA (phorbol 12-myristate 13-acetate) for 24 hours, and then differentiated into macrophage. Then, the culture medium was replaced with a new one, then treated with a test drug for 24 hours, and then treated again with 10 ng/mL LPS (E.Coli, O55:B5) for four hours for stimulation. After that, supernatant was taken and used to measure the amount of TNFα secreted from the cells by means of a Human TNFα Instant ELISA kit (eBioscience, BMS223INST) according to a protocol provided by a manufacturer.

[3] = test system: experimental autoimmune uveitis (EAU) mouse; assay: Clinical grading of uveitis in the EAU mouse (fundoscopy); format: in vivo
[4] = test system: experimental autoimmune uveitis (EAU) mouse; assay: H&E staining of histopathological lesions in the retina of the EAU mouse; format: in vivo; details: 0.3% eye drop twice a day, Day 21
[5] = test system: experimental autoimmune uveitis (EAU) mouse; assay: Immunofluorescent staining of immunomarkers in the retina of the EAU mouse; format: in vivo
[6] = test system: experimental autoimmune uveitis (EAU) mouse; assay: ELISA of IFN-γ and IL-17A from spleen mononuclear cells of the EAU mouse; format: in vivo
[7] = test system: experimental autoimmune uveitis (EAU) mouse; assay: Real-time PCR of HDAC6 and inflammatory cytokines in the retina of the EAU mouse; format: in vivo; details: for expression level of HDAC6 / expression level of IL-1β / expression level of IL-17 / expression level of INF-γ / expression level of TNF-α: retina
[8] = test system: experimental autoimmune uveitis (EAU) mouse; assay: FACS of immune cells in retina and draining lymph node of the EAU mouse; format: in vivo
[9] = THP-1, LPS, at both 100 nM and 300 nM
[10] = in comparison with LPS-induced control group, THP-1, concentration not specified
[11] = EAU mouse, eye drop administration group
[12] = spleen MNC stimulated with IRBP peptide 72 hours, eye drop administration group
[13] = i.p. administration group (10 or 30 mg/kg once a day)
[14] = lymph node tissues, eye drop administration group
[15] = lymph nodes, i.p. administration group
[16] = retina tissues, eye drop administration group
[17] = THP-1, LPS, on increasing concentration of compound treatment from 100 nM to 300 nM

O=C(NO)c1ccc(CN(C(=O)N2CCOCC2)c2cccc(Br)c2)cc1 [Compound 255, N-(3-bromophenyl)-N-(4-(hydroxycarbamoyl)benzyl)morpholine-4-carboxamide] was tested, and the “proliferation of the reactive T cells” value (reactive T cells) was “excellent effect”, the “level of CTLA4 expression in the T cells (function of regulatory T cells)” value (“level of CTLA4 expression in the T cells” below) [1] was “excellent effect” and the cytotoxicity ([1]; treated at 1000 nM, data analysis not performed) was “severe cytotoxicity”.
For O=C(NO)c1ccc(CN(C(=O)N2CCOCC2)c2ccccn2)cc1 [Compound 280, N-(4-(hydroxycarbamoyl)benzyl)-N-(pyridine-2-yl)morpholine-4-carboxamide], the “proliferation of the reactive T cells” value (reactive T cells) was “excellent effect” and the “level of CTLA4 expression in the T cells” value [1] was “excellent effect”.
For O=C(NO)c1ccc(CN(C(=O)N2CCOCC2)c2cccc(C(F)(F)F)c2)cc1 [Compound 374, N-(4-(hydroxycarbamoyl)benzyl)-N-(3-(trifluoromethyl)phenyl)morpholine-4-carboxamide], the “level of TNFα secretion” value [2, 9] was “remarkably decreased down to a level at which no inflammatory response was induced by means of the LPS”, the “level of TNFα secretion” value [2, 10] was “excellent effect” and the “proliferation of the reactive T cells” value (reactive T cells) was “excellent effect”. The “level of CTLA4 expression in the T cells” value [1] was “excellent effect”, the “clinical grade of uveitis” value ([3]; EAU mouse, 0.3% eye drop twice a day from Day 11, Day 21, scale Grade 0-4) was no more than 0.5 Grade and the “decreasing a uveitis lesion” value ([3]; animal model for an induced uveitis disease, summary (FIGS. 4 to 6)) was “excellent effect”. For the same molecule, the “inflammatory lesions in retina tissues (H&E)” value [4] was “significantly decreased”, the “B220 (B cell marker) in retina” value [5, 11] was “did not show an obvious change” and the “CD3(+) cell (T cell marker) in retina” value [5, 11] was “significantly decreased to a similar level to that of a normal mouse”. The “infiltration of CD4(+) immune cells into a retina tissue” value [5, 11] was “clearly decreased and remained only under the retina”, the “inhibiting an infiltration of inflammatory cells” value ([5]; animal model for an induced uveitis disease, summary (FIGS. 7 to 10)) was “excellent effect” and the “inhibiting an expression of inflammatory cytokines in a spleen” value ([6]; animal model for an induced uveitis disease, summary (FIG. 11)) was “excellent effect”. For the same molecule, the “level of IL-17A” value [6, 12] was “significantly decreased”, the “level of INF-γ” value [6, 12] was “significantly decreased” and the “inhibiting an expression of inflammatory cytokines in inflammation regions” value ([7]; animal model for an induced uveitis disease, summary (FIG. 12)) was “excellent effect”. For the same molecule, the “expression level of HDAC6” value ([7]; eye drop administration group) was “significantly decreased and recovered to the level of the normal mouse”, the “expression level of IL-1β” value ([7]; eye drop administration group) was “significantly decreased and recovered to the level of the normal mouse” and the “expression level of IL-17” value ([7]; eye drop administration group) was “significantly decreased and recovered to the level of the normal mouse”. The “expression level of INF-γ” value ([7]; eye drop administration group) was “significantly decreased and recovered to the level of the normal mouse”, the “expression level of TNF-α” value ([7]; eye drop administration group) was “significantly decreased and recovered to the level of the normal mouse” and the “expression level of HDAC6” value [7, 13] was “significantly decreased and recovered to the level of the normal mouse”. The “expression level of IL-1β” value [7, 13] was “significantly decreased and recovered to the level of the normal mouse”, the “expression level of IL-17” value [7, 13] was “significantly decreased and recovered to the level of the normal mouse” and the “expression level of INF-γ” value [7, 13] was “significantly decreased and recovered to the level of the normal mouse”. For the same molecule, the “expression level of TNF-α” value [7, 13] was “significantly decreased and recovered to the level of the normal mouse”, the “decreasing the number of immune cells in a retina and a lymph node” value ([8]; animal model for an induced uveitis disease, summary (FIGS. 13 to 21)) was “excellent effect” and the “number of IL-IP(+) cells” value [8, 14] was “significantly decreased”. The “number of INF-γ(+)/CD4(+) cells” value [8, 14] was “significantly decreased”, the “number of INF-γ(+)/CD4(+) cells” value ([8]; lymph node tissues, i.p. administration group) was “significantly decreased” and the “number of CD11b(+) cells” value [8, 15] was “decreased”. For the same molecule, the “number of CD19(+) cells” value [8, 15] was “decreased”, the “number of F4/80(+) cells” value [8, 15] was “decreased” and the “number of IL-IP(+) cells” value [8, 16] was “significantly decreased”. For the same molecule, the “number of INF-γ(+)/CD4(+) cells” value [8, 16] was “significantly decreased”, the “number of INF-γ(+)/CD4(+) cells” value ([8]; retina tissues, i.p. administration group, 10 mg/kg) was “significantly decreased” and the “number of INF-γ(+)/CD4(+) cells” value ([8]; retina tissues, i.p. administration group, 30 mg/kg) was “significantly decreased”.
For CN1CCN(C(=O)N(Cc2ccc(C(=O)NO)cc2)c2ccc(F)cc2F)CC1 [Compound 416, N-(2,4-difluorophenyl)-N-(4-(hydroxycarbamoyl)benzyl)-4-methylpiperazine-1-carboxamide], the “proliferation of the reactive T cells” value (reactive T cells) was “excellent effect” and the “level of CTLA4 expression in the T cells” value [1] was “excellent effect”.
CCN1CCN(C(=O)N(Cc2ccc(C(=O)NO)cc2)c2cccc(C(F)(F)F)c2)CC1 [Compound 461, 4-ethyl-N-(4-(hydroxycarbamoyl)benzyl)-N-(3-(trifluoromethyl)phenyl)piperazine-1-carboxamide] was tested, and the “level of TNFα secretion” value [2, 9] was “remarkably decreased down to a level at which no inflammatory response was induced by means of the LPS” and the “level of TNFα secretion” value [2, 10] was “excellent effect”.
With O=C(NO)c1ccc(CN(C(=O)N2CC(F)(F)C2)c2cccc(C(F)(F)F)c2)cc1 [Compound 476, 3,3-difluoro-N-(4-(hydroxycarbamoyl)benzyl)-N-(3-(trifluoromethyl)phenyl)azetidine-1-carboxamide] the “proliferation of the reactive T cells” value (reactive T cells) was “excellent effect” and the “level of CTLA4 expression in the T cells” value [1] was “excellent effect”.
With O=C(NO)c1ccc(CN(C(=O)N2CCOCC2)c2cccc(CF)c2)cc1 [Compound 500, N-(3-(fluoromethyl)phenyl)-N-(4-(hydroxycarbamoyl)benzyl)morpholine-4-carboxamide] the “level of TNFα secretion” value [2, 9] was “remarkably decreased down to a level at which no inflammatory response was induced by means of the LPS” and the “level of TNFα secretion” value [2, 10] was “excellent effect”.
O=C(NO)c1ccc(CN(C(=O)N2CCOCC2)c2cccc(F)c2)cc1 [Compound 530, N-(3-fluorophenyl)-N-(4-(hydroxycarbamoyl)benzyl)morpholine-4-carboxamide] was tested, and the “level of TNFα secretion” value [2, 17] was “drastically decreased” and the “level of TNFα secretion” value [2, 10] was “excellent effect”.
With O=C(NO)c1ccc(CN(C(=O)N2CCOCC2)c2cccc(C(F)(F)F)c2)c(F)c1 [Compound 532, N-(2-fluoro-4-(hydroxycarbamoyl)benzyl)-N-(3-(trifluoromethyl)phenyl)morpholine-4-carboxamide] the “level of TNFα secretion” value [2, 17] was “drastically decreased” and the “level of TNFα secretion” value [2, 10] was “excellent effect”.
